From US11318167B2, “Isolation of fusion-competent myoblasts and therapeutic applications thereof related to muscular dystrophy” (THE JOHNS HOPKINS UNIVERSITY, priority 2015, dated 2022)

B1: BMP4: BMP4 protein added to the culture media (protein, UniProt P12644 293-408, looked up)
Bone morphogenetic protein 4: SPKHHSQRARKKNKNCRRHSLYVDFSDVGWNDWIVAPPGYQAFYCHGDCPFPLADHLNSTNHAIVQTLVNSVNSSIPKACCVPTELSAISMLYLDEYDKVVLKNYQEMVVEGCGCR

Legend:
[1] = tested on: canonical WNT signaling pathway; experiment: β-catenin translocation into the nucleus (canonical WNT signaling); format: cell-based, human
Excerpt: The present invention was created through a number of discoveries. First, to harness the potential of hPSCs, a protocol to direct hPSCs into the skeletal muscle lineage was developed. As the somite is an intermediate stage between hPSCs and myogenic progenitor cells (Bentzinger et al, 2012; Dequeant and Pourquie, 2008) (FIG. 6A), a MESOGENIN1::eGFP reporter human embryonic stem cell (hESC) line was generated with the CRISPR/Cas9 system (Mali et al, 2013) (FIG. 6B-6D), because MESOGENIN1 is a genetic marker for the pre-somite mesoderm fate (Fior et al., 2012).

[2] = tested on: MESOGENIN1::eGFP reporter human embryonic stem cell (hESC) line; experiment: MESOGENIN1::eGFP reporter hESC line, pre-somite mesoderm induction (day 4); format: cell-based
Excerpt: The present invention was created through a number of discoveries. First, to harness the potential of hPSCs, a protocol to direct hPSCs into the skeletal muscle lineage was developed. As the somite is an intermediate stage between hPSCs and myogenic progenitor cells (Bentzinger et al, 2012; Dequeant and Pourquie, 2008) (FIG. 6A), a MESOGENIN1::eGFP reporter human embryonic stem cell (hESC) line was generated with the CRISPR/Cas9 system (Mali et al, 2013) (FIG. 6B-6D), because MESOGENIN1 is a genetic marker for the pre-somite mesoderm fate (Fior et al., 2012). […] For myogenic differentiation, hESCs/hiPSCs were rendered to single cells using Accutase® solution, and plated on gelatin for 10 minutes to remove MEFs. Non-adherent cells were collected and plated on Geltrex™ treated dishes, at a density of 1.5×10^5 cells per well of a 24-well plate, in the presence of MEF-conditioned N2 media containing 10 ng/ml of FGF-2 and 10 μM of Y-27632 (Cayman Chemical Co.) (day 0). The N2 medium, described in detail, contains DMEM/F12 powder, glucose, sodium bicarbonate, insulin, putrescine, progesterone, sodium selenite, and transferrin. From the next day (day 1), media was changed at every other day. BIO (30 nM-250 nM), lithium chloride (20 μM-20 mM), Kenpallone (1 μM-10 μM), SB 216763 (1 μM-10 μM), WNT-1 (10 ng/ml-100 ng/ml), WNT-3A (10 ng/ml-100 ng/ml), WNT-7A (10 ng/ml-100 ng/ml), SBE13 hydrochloride (0.1 nM-10 μM), and OTSSP167 hydrochloride (0.1 nM-10 nM) were tested during day 1 to day 4, as well as during day 4 to day 8. Final concentrations of CHIR99021 and DAPT treatment are 3 μM and 10 μM, respectively.

[3] = tested on: control hiPSC-derived myoblasts; experiment: Effect of DMD-myoblast conditioned media / BMP4 on control hiPSC-derived myoblasts; format: cell-based, human; settings: BMP4 four concentrations, 7.5 μg/ml to 25 μg/ml; compared with inhibitive effect of DMD-myoblast CM
Procedure: FIG. 10A-10D is related to FIG. 5 and illustrates the effect of BMP4 on myoblasts and its pharmacological rescue. (A) Increased level of BMP4 expression in DMD-myoblasts than control myoblasts. (B-C) Inhibitive effect of conditioned media (CM, harvested after 24 hr incubation) from DMD-myoblasts on fusion index (B), and MYOG, and MYOD1 expression (C) of control hiPSC-derived myoblasts. […] (D) The decreased fusion index in DMD-CM-treated myoblasts was rescued by ‘dual SMAD inhibition’ compounds. (*, P≤0.05; ***, P≤0.001; ****, P≤0.0001, One-way ANOVA followed by Newman-Keuls test). n=3-5. All values represent means and s.d.
To find pharmacological rescue of the in vitro phenotypes, aberrant BMP and TGFβ signaling indicated by increased nuclear localization of pSMAD proteins in DMD-myoblasts (FIG. 3C-3D) was studied. Increased levels of BMP4 in the conditioned media (CM) of DMD-myoblasts (FIG. 10A) was detected. […] The effect of CM of DMD-myoblasts was reproduced by treatment with BMP4 protein in the culture media, which was reversed by treatment with ‘dual-SMAD’ inhibition compounds (FIG. 10D) (LDN+SB: LDN193189 and SB431542).

| Molecule | β-catenin translocation into the nucleus [1] | expression of MESOGENIN1::eGFP (cells out of total cells in a dish) ([2]; brief treatment 4 days after day 0, read at day 4, final concentration 3 μM) | expression of TBX6 (positive cells) ([2]; brief treatment 4 days, read at day 4) | expression of PAX3 ([2]; brief treatment 4 days, read at day 4, dose-dependent manner) | MYOG and MYOD1 expression of control hiPSC-derived myoblasts [3] | fusion index of control hiPSC-derived myoblasts [3] |
| --- | --- | --- | --- | --- | --- | --- |
| Cc1c[nH]c(-c2cnc(NCCNc3ccc(C#N)cn3)nc2-c2ccc(Cl)cc2Cl)n1.Cl [CHIR99021] | β-catenin translocation into the nucleus | 80.8±11.3% | 67.4±10.4% | significantly increased expression |  |  |
| B1 |  |  |  |  | recapitulated the effect of CM of DMD-myoblasts | recapitulated the effect of CM of DMD-myoblasts |
